Test results as given in patent publication US11053226B2, “KRAS G12C inhibitors and methods of using the same” (Amgen Inc., priority 2018, dated 2021).
Like-named read-outs stand apart in the source and are kept apart here.

Key:
[1] = biological target: GDP-bound KRAS protein (aa 1-169), containing both G12C and C118A amino acid substitutions (Homo sapiens (Human), UniProt P01116, C118A/G12C); test: Coupled Nucleotide Exchange Assay; type: biochemical; details: read-out: Coupled Exchange IC50 (2 h); 2 h compound pre-incubation
Description: (§1) For compounds in Table 9, the following assay conditions were employed:
Coupled Nucleotide Exchange Assay:
The assay plates were then read on a PerkinElmer EnVision Multilabel Reader, using AlphaScreen® technology, and data were analyzed using a 4-parameter logistic model to calculate IC50 values.

[2] = system: Phosphorylation of ERK1/2 in MIA PaCa-2 cells; test: Phospho-ERK1/2 MSD Assay; type: cell-based; details: MiaPaCa-2 cells
Description: as §1
Phospho-ERK1/2 MSD Assay:
Sixteen hours prior to compound treatment, MIA PaCa-2 cells were seeded in 96-well cell culture plates at a density of 25,000 cells/well and incubated at 37° C., 5% CO2. […] Following compound treatment, cells were stimulated with 10 ng/mL EGF (Roche 11376454001) for 10 min, washed with ice-cold Dulbecco's phosphate-buffered saline, no Ca^2+ or Mg^2+ (ThermoFisher Scientific 14190144), and then lysed in RIPA buffer (50 mM Tris-HCl pH 7.5, 1% Igepal, 0.5% sodium deoxycholate, 150 mM NaCl, and 0.5% sodium dodecyl sulfate) containing protease inhibitors (Roche 4693132001) and phosphatase inhibitors (Roche 4906837001). […] Assay plates were read on a Meso Scale Discovery Sector Imager 6000, and data were analyzed using a 4-parameter logistic model to calculate IC50 values.

[3] = system: Phosphorylation of ERK1/2 in A549 cells; test: Phospho-ERK1/2 MSD Assay (A549); type: cell-based
[4] = Homo sapiens, A549, 4 h, read-out: pERK IC50 (4 h, A549), 4 h compound treatment
[5] = Homo sapiens, MIA PaCa-2, 4 h, read-out: pERK IC50 (4 h, MiaPaCa-2), 4 h compound treatment

Sequence of GDP-bound KRAS protein (aa 1-169), containing both G12C and C118A amino acid substitutions (P01116 other isoform, or with tags, fused parts or gaps G12C/C118A): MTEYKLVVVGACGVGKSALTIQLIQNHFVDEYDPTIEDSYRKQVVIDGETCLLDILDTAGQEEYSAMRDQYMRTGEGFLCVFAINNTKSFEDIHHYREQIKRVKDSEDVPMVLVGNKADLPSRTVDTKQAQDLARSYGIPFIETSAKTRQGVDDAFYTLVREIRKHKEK

Compound	IC50 [3, 4] [µM]	IC50 [2, 5] [µM]	other results
C=CC(=O)N1CC(NC(=O)Cn2c(C)c(C(=O)N3CCc4ccccc4[C@H]3C)c3cc(Br)cc(C)c32)C1 (stereo in doubt) [Example 2-2, 2-(5-Bromo-2,7-dimethyl-3-(((1R)-1-methyl-3,4-dihydro-2(1H)-isoquinolinyl)carbonyl)-1H-indol-1-yl)-N-(1-(2-propenoyl)-3-azetidinyl)acetamide|2-(5-bromo-2,7-dimethyl-3-(((1S)-1-methyl-3,4-dihydro-2(1H)-isoquinolinyl)carbonyl)-1H-indol-1-yl)-N-(1-(2-propenoyl)-3-azetidinyl)acetamide]	40.9	–	IC50 [1]: 0.25 µM; IC50 ([2]; read-out: pERK IC50 (4 h, MiaPaCa-2), 4 h compound treatment): 2.28 µM
C=CC(=O)N1CC(NC(=O)Cn2c(C)c(C(=O)N3[C@H](C)Cc4c(OC)cccc4[C@H]3C)c3cc(Br)cc(C)c32)C1 (stereo in doubt) [Example 2-3]	51.7	0.67	IC50 [1]: 0.16 µM
C=CC(=O)N1CC(NC(=O)Cn2cc(C(=O)N3CCN(c4ccc(C)cn4)CC3)c3cc(Br)ccc32)C1 [Example 45]	> 100	3.96	–
C=CC(=O)N1CC(NC(=O)Cn2c(C)c(C(=O)N3CCN(c4ccc([N+](=O)[O-])cn4)CC3)c3cc(Br)ccc32)C1 [Example 46]	> 100	4.08	–
C=CC(=O)N1CC(N(C)C(=O)Cn2c(C)c(C(=O)N3CCN(c4ccc(C)cn4)CC3)c3cc(Br)ccc32)C1 [Example 47]	> 100	4.16	–
C=CC(=O)N1CC(NC(=O)Cn2cc(C(=O)N3CCN(c4cccc(C)n4)CC3)c3cc(Br)ccc32)C1 [Example 48]	> 33.3	4.56	–
C=CC(=O)N1CC(N2CC[C@@H](n3c(C)c(C(=O)N4CCc5c(cccc5OC)C4)c4cc(Br)ccc43)C2=O)C1 [Example 50]	> 33.3	4.81	–
C=CC(=O)N1CC(NC(=O)Cn2cc(C(=O)N3CCN(c4ncccc4C)CC3)c3cc(Br)ccc32)C1 [Example 61]	> 33.3	7.06	–
C=CC(=O)N1CC(NC(=O)Cn2c(C)c(C(=O)N3CCOC(C)(C)C3)c3cc(Br)ccc32)C1 [Example 64]	> 100	7.74	–
C=CC(=O)N1CC(NC(=O)Cn2c(C)c(C(=O)C3CCc4ccccc4C3)c3cc(Br)ccc32)C1 (stereo not drawn) [Example 65]	3.47	7.99	–
C=CC(=O)N1CC(NC(=O)Cn2cc(C(=O)NCCOc3c(C)cccc3C)c3cc(Br)ccc32)C1 [Example 68]	> 100	8.81	–
C=CC(=O)N1CC(N(CC)C(=O)Cn2c(C)c(C(=O)N3CCc4ccccc4C3C)c3cc(Br)cc(C)c32)C1 (stereo not drawn) [Example 72]	63.4	10.6	–
C=CC(=O)N1CC(C)(NC(=O)Cn2c(C)c(C(=O)N3CCc4c(cccc4OC)C3)c3cc(Br)ccc32)C1 [Example 77]	10.2	11.6	–
C=CC(=O)N1CC(NC(=O)Cn2cc(C(=O)N3CCN(c4cc(C)ccn4)CC3)c3cc(Br)ccc32)C1 [Example 79]	> 100	11.8	–
C=CC(=O)N1CC(NC(=O)Cn2c(C)c(C(=O)N3CCN(c4ccc(C#N)cn4)C[C@@H]3C)c3cc(Br)ccc32)C1 [Example 81]	> 100	12.5	–
C=CC(=O)N1CC(NC(=O)Cn2c(C)c(C(=O)N3CCN(c4ccc(C#N)cn4)CC3)c3cc(Br)ccc32)C1 [Example 83]	> 100	13.6	–
C=CC(=O)N1CC(NC(=O)Cn2cc(C(=O)N3CCc4c(ccnc4OC)C3)c3cc(Br)ccc32)C1 [Example 89]	> 100	14.9	–
C=CC(=O)N1CC(NC(=O)Cn2cc(C(=O)N3CCN(c4ccc(OC)cn4)CC3)c3cc(Br)ccc32)C1 [Example 93]	> 100	16.5	–
C=CC(=O)N1CC(NC(=O)Cn2cc(C(=O)N3CCc4c(ccc(Cl)c4Cl)C3)c3cc(Br)ccc32)C1 [Example 96]	30.5	17.4	–
C=CC(=O)N1CC(NC(=O)Cn2cc(C(=O)N3CCN(c4ccc([N+](=O)[O-])cn4)CC3)c3cc(Br)ccc32)C1 [Example 99]	> 100	18.9	–
C=CC(=O)N1CC(NC(=O)Cn2c3c(c4cc(Br)ccc42)CCN(C(=O)OC(C)(C)C)C3)C1 [Example 100]	–	–	IC50 ([2]; Homo sapiens, MIA PaCa-2, read-out: pERK IC50 (4 h), 4 h compound treatment): 19.4 µM; IC50 ([3]; Homo sapiens, read-out: pERK IC50 (4 h), 4 h compound treatment): > 33.3 µM
C=CC(=O)N1CC(NC(=O)Cn2cc(C(=O)N3CCO[C@H](c4ccccc4)C3)c3cc(Br)ccc32)C1 [Example 103]	> 100	21.6	–
C=CC(=O)N1CC(NC(=O)Cn2cc(C(=O)N3CCc4cc(Br)ccc4C3)c3cc(Br)ccc32)C1 [Example 104]	–	21.7	IC50 ([3]; read-out: pERK IC50 (4 h, A549), 4 h compound treatment): 14.6 µM
